Positions of bridges follow the written chain, without caps; N, C: chain ends. Non-standard residues stand in square brackets, D forms with d. Residues, ends and D or L forms follow the SMILES beside them. NMeW = CN[C@@H](Cc1c[nH]c2ccccc12)C(=O)O; NMeY = CN[C@@H](Cc1ccc(O)cc1)C(=O)O; Tic = O=C(O)[C@@H]1Cc2ccccc2CN1; Cit = NC(=O)NCCC[C@H](N)C(=O)O; Ahp(2) = CCCCC[C@H](N)C(=O)O; NMeNle = CCCC[C@H](NC)C(=O)O; Tle = CC(C)(C)[C@H](N)C(=O)O; NMeV = CN[C@H](C(=O)O)C(C)C; NMeS = CN[C@@H](CO)C(=O)O; NHexGly = CCCCCCNCC(=O)O; Nle = CCCC[C@H](N)C(=O)O; Orn = NCCC[C@H](N)C(=O)O
Molecular target: T1, mouse VISTA (mVISTA) (Mus musculus, UniProt Q9D659)
T1 construct: expressed in transfected cells; host or cells: Human embryonic kidney 293T cells
T1 sequence (Q9D659 33-308): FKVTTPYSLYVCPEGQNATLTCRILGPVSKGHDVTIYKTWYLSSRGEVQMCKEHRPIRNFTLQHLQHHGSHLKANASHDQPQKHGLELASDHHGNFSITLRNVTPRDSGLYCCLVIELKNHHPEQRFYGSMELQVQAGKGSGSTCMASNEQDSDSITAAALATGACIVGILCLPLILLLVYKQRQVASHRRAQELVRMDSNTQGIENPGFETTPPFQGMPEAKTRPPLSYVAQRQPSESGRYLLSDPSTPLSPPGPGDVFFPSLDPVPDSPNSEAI
Test: Cell-Based Binding High-Content Assay For mVISTA (HC CBA mVISTA)
Details: read-out: HC CBA mVISTA IC50
How it was run: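 This high-content binding assay uses HEK293T cells expressing murine VISTA, measuring displacement of 2 nM biotinylated peptide by fluorescent streptavidin imaging. IC50 values come from four-parameter logistic fitting.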

SMILES	IC50
CCCCCCN1CC(=O)N[C@@H](Cc2ccc(O)cc2)C(=O)N[C@@H](CCCC)C(=O)N[C@@H](CC(N)=O)C(=O)N[C@@H](CCCN)C(=O)N(C)[C@@H](CCCC)C(=O)N[C@@H](CCCCC)C(=O)N2CCC[C@H]2C(=O)N[C@@H](C(C)(C)C)C(=O)N[C@@H](CO)C(=O)N[C@H](C(=O)N[C@@H](CC(N)=O)C(=O)O)CSCC(=O)N[C@@H](Cc2ccccc2)C(=O)N[C@@H](Cc2c[nH]c3ccccc23)C(=O)N[C@@H](CC(=O)O)C1=O [Example 1400] ({CH2CO}-FWD[NHexGly]Y[Nle]N[Orn][NMeNle][Ahp(2)]P[Tle]SCN-OH; thioether N-14)	14.1 nM
CCCCCCN1CC(=O)N[C@@H](Cc2ccc(O)cc2)C(=O)N[C@@H](CCCC)C(=O)N[C@@H](CC(=O)O)C(=O)N[C@@H](CCCN)C(=O)N(C)[C@@H](CCCC)C(=O)N[C@@H](CCCCC)C(=O)N2CCC[C@H]2C(=O)N[C@@H](C(C)(C)C)C(=O)N[C@@H](CO)C(=O)N[C@H](C(=O)N[C@@H](CC(N)=O)C(=O)O)CSCC(=O)N[C@@H](Cc2ccccc2)C(=O)N[C@@H](Cc2c[nH]c3ccccc23)C(=O)N[C@@H](CC(=O)O)C1=O [Example 1401] ({CH2CO}-FWD[NHexGly]Y[Nle]D[Orn][NMeNle][Ahp(2)]P[Tle]SCN-OH; thioether N-14)	20.2 nM
CCCCCCN1CC(=O)N[C@@H](Cc2ccc(O)cc2)C(=O)N[C@@H](CCCC)C(=O)N[C@@H](CC(=O)O)C(=O)N[C@@H](CCCNC(=N)N)C(=O)N(C)[C@@H](CCCC)C(=O)N[C@@H](CCCCC)C(=O)N2CCC[C@H]2C(=O)N[C@@H](C(C)(C)C)C(=O)N[C@@H](CC(=O)O)C(=O)N[C@H](C(=O)N[C@@H](CC(N)=O)C(=O)O)CSCC(=O)N[C@@H](Cc2ccccc2)C(=O)N[C@@H](Cc2c[nH]c3ccccc23)C(=O)N[C@@H](CC(=O)O)C1=O [Example 1403] ({CH2CO}-FWD[NHexGly]Y[Nle]DR[NMeNle][Ahp(2)]P[Tle]DCN-OH; thioether N-14)	32 nM
CCCCCCN1CC(=O)N[C@@H](Cc2ccc(O)cc2)C(=O)N[C@@H](CCCC)C(=O)N[C@@H](CC(N)=O)C(=O)N[C@@H](CCCN)C(=O)N(C)[C@@H](CCCC)C(=O)N[C@@H](CCCCC)C(=O)N2CCC[C@H]2C(=O)N[C@@H](C(C)(C)C)C(=O)N[C@@H](CC(=O)O)C(=O)N[C@H](C(=O)N[C@@H](CC(N)=O)C(=O)O)CSCC(=O)N[C@@H](Cc2ccccc2)C(=O)N[C@@H](Cc2c[nH]c3ccccc23)C(=O)N[C@@H](CC(=O)O)C1=O [Example 1404] ({CH2CO}-FWD[NHexGly]Y[Nle]N[Orn][NMeNle][Ahp(2)]P[Tle]DCN-OH; thioether N-14)	16 nM
CCCCCCN1CC(=O)N[C@@H](Cc2ccc(O)cc2)C(=O)N[C@@H](CCCC)C(=O)N[C@@H](CC(=O)O)C(=O)N[C@@H](CCCNC(=N)N)C(=O)N(C)[C@@H](CCCC)C(=O)N[C@@H](CCCCC)C(=O)N2CCC[C@H]2C(=O)N[C@@H](C(C)C)C(=O)N[C@@H](CC(=O)O)C(=O)N[C@H](C(=O)N[C@@H](CO)C(N)=O)CSCC(=O)N[C@@H](Cc2ccccc2)C(=O)N[C@@H](Cc2c[nH]c3ccccc23)C(=O)N[C@@H](CC(=O)O)C1=O [Example 1407] ({CH2CO}-FWD[NHexGly]Y[Nle]DR[NMeNle][Ahp(2)]PVDCS-NH2; thioether N-14)	34.5 nM
CCCCCCN1CC(=O)N[C@@H](Cc2ccc(O)cc2)C(=O)N[C@@H](CCCC)C(=O)N[C@@H](CC(N)=O)C(=O)N[C@@H](CCCNC(=N)N)C(=O)N(C)[C@@H](CO)C(=O)N[C@@H](CCCCC)C(=O)N2CCC[C@H]2C(=O)N[C@@H](C(C)C)C(=O)N[C@@H](CC(=O)O)C(=O)N[C@H](C(=O)NCC(=O)O)CSCC(=O)N[C@@H](Cc2ccccc2)C(=O)N[C@@H](Cc2c[nH]c3ccccc23)C(=O)N[C@@H](CC(=O)O)C1=O [Example 1408] ({CH2CO}-FWD[NHexGly]Y[Nle]NR[NMeS][Ahp(2)]PVDCG-OH; thioether N-14)	20.8 nM
CCCCCCN1CC(=O)N[C@@H](Cc2ccc(O)cc2)C(=O)N[C@@H](CCCC)C(=O)N[C@@H](CC(N)=O)C(=O)N[C@@H](CCCNC(=N)N)C(=O)N(C)[C@@H](Cc2c[nH]c3ccccc23)C(=O)N[C@@H](CCCCC)C(=O)N2CCC[C@H]2C(=O)N[C@@H](C(C)C)C(=O)N[C@@H](CC(=O)O)C(=O)N[C@H](C(=O)NCC(=O)O)CSCC(=O)N[C@@H](Cc2ccccc2)C(=O)N[C@@H](Cc2c[nH]c3ccccc23)C(=O)N[C@@H](CC(=O)O)C1=O [Example 1410] ({CH2CO}-FWD[NHexGly]Y[Nle]NR[NMeW][Ahp(2)]PVDCG-OH; thioether N-14)	5.3 nM
CCCCCCN1CC(=O)N[C@@H](Cc2ccc(O)cc2)C(=O)N[C@@H](CCCC)C(=O)N[C@@H](CC(N)=O)C(=O)N[C@@H](CCCNC(=N)N)C(=O)N(C)[C@@H](Cc2ccc(O)cc2)C(=O)N[C@@H](CCCCC)C(=O)N2CCC[C@H]2C(=O)N[C@@H](C(C)C)C(=O)N[C@@H](CC(=O)O)C(=O)N[C@H](C(=O)NCC(=O)O)CSCC(=O)N[C@@H](Cc2ccccc2)C(=O)N[C@@H](Cc2c[nH]c3ccccc23)C(=O)N[C@@H](CC(=O)O)C1=O [Example 1411] ({CH2CO}-FWD[NHexGly]Y[Nle]NR[NMeY][Ahp(2)]PVDCG-OH; thioether N-14)	18.6 nM
CCCCCCN1CC(=O)N[C@@H](Cc2ccc(O)cc2)C(=O)N[C@@H](CCCC)C(=O)N[C@@H](CC(N)=O)C(=O)N[C@@H](CCCNC(N)=O)C(=O)N2Cc3ccccc3C[C@H]2C(=O)N[C@@H](CCCCC)C(=O)N2CCC[C@H]2C(=O)N[C@@H](C(C)C)C(=O)N[C@@H](CC(=O)O)C(=O)N[C@H](C(=O)NCC(N)=O)CSCC(=O)N[C@@H](Cc2ccccc2)C(=O)N[C@@H](Cc2c[nH]c3ccccc23)C(=O)N[C@@H](CC(=O)O)C1=O [Example 1412] ({CH2CO}-FWD[NHexGly]Y[Nle]N[Cit][Tic][Ahp(2)]PVDCG-NH2; thioether N-14)	13.1 nM

Next, values leading:

IC50	SMILES
33.8 nM	CCCCCCN1CC(=O)N[C@@H](Cc2ccc(O)cc2)C(=O)N[C@@H](CCCC)C(=O)N[C@@H](CC(N)=O)C(=O)N[C@@H](CCCNC(=N)N)C(=O)N(C)[C@@H](CCCC)C(=O)N[C@@H](CCCCC)C(=O)N2CCC[C@H]2C(=O)N[C@@H](C(C)(C)C)C(=O)N[C@@H](CO)C(=O)N[C@H](C(=O)N[C@@H](CC(N)=O)C(=O)O)CSCC(=O)N[C@@H](Cc2ccccc2)C(=O)N[C@@H](Cc2c[nH]c3ccccc23)C(=O)N[C@@H](CC(=O)O)C1=O [Example 1402] ({CH2CO}-FWD[NHexGly]Y[Nle]NR[NMeNle][Ahp(2)]P[Tle]SCN-OH; thioether N-14)
5 nM	CCCCCCN1CC(=O)N[C@@H](Cc2ccc(O)cc2)C(=O)N[C@@H](CCCCC)C(=O)N[C@@H](CC(N)=O)C(=O)N[C@@H](CCCNC(=N)N)C(=O)N(C)[C@@H](CCCC)C(=O)N[C@@H](CCCCC)C(=O)N2CCC[C@H]2C(=O)N[C@@H](C(C)C)C(=O)N[C@@H](CC(=O)O)C(=O)N[C@H](C(=O)N[C@@H](CO)C(N)=O)CSCC(=O)N[C@@H](Cc2ccccc2)C(=O)N[C@@H](Cc2c[nH]c3ccccc23)C(=O)N[C@@H](CC(=O)O)C1=O [Example 1405] ({CH2CO}-FWD[NHexGly]Y[Ahp(2)]NR[NMeNle][Ahp(2)]PVDCS-NH2; thioether N-14)
6.4 nM	CCCCCCN1CC(=O)N[C@@H](Cc2ccc(O)cc2)C(=O)N[C@@H](CCCC)C(=O)N[C@@H](CC(N)=O)C(=O)N[C@@H](CCCNC(=N)N)C(=O)N(C)[C@@H](CCCC)C(=O)N[C@@H](CCCCC)C(=O)N2CCC[C@H]2C(=O)N[C@@H](C(C)C)C(=O)N[C@@H](CC(=O)O)C(=O)N[C@H](C(=O)N[C@@H](CO)C(=O)O)CSCC(=O)N[C@@H](Cc2ccccc2)C(=O)N[C@@H](Cc2c[nH]c3ccccc23)C(=O)N[C@@H](CC(=O)O)C1=O [Example 1406] ({CH2CO}-FWD[NHexGly]Y[Nle]NR[NMeNle][Ahp(2)]PVDCS-OH; thioether N-14)
12.7 nM	CCCCCCN1CC(=O)N[C@@H](Cc2ccc(O)cc2)C(=O)N[C@@H](CCCC)C(=O)N[C@@H](CC(N)=O)C(=O)N[C@@H](CCCNC(=N)N)C(=O)N(C)[C@@H](C(C)C)C(=O)N[C@@H](CCCCC)C(=O)N2CCC[C@H]2C(=O)N[C@@H](C(C)C)C(=O)N[C@@H](CC(=O)O)C(=O)N[C@H](C(=O)NCC(=O)O)CSCC(=O)N[C@@H](Cc2ccccc2)C(=O)N[C@@H](Cc2c[nH]c3ccccc23)C(=O)N[C@@H](CC(=O)O)C1=O [Example 1409] ({CH2CO}-FWD[NHexGly]Y[Nle]NR[NMeV][Ahp(2)]PVDCG-OH; thioether N-14)
18.9 nM	CCCCCCN1CC(=O)N[C@@H](Cc2ccc(O)cc2)C(=O)N[C@@H](CCCC)C(=O)N[C@@H](CC(N)=O)C(=O)N[C@@H](CCCNC(N)=O)C(=O)N2Cc3ccccc3C[C@H]2C(=O)N[C@@H](CCCCC)C(=O)N2CCC[C@H]2C(=O)N[C@@H](C(C)C)C(=O)N[C@@H](CO)C(=O)N[C@H](C(=O)NCC(N)=O)CSCC(=O)N[C@@H](Cc2ccccc2)C(=O)N[C@@H](Cc2c[nH]c3ccccc23)C(=O)N[C@@H](CC(=O)O)C1=O [Example 1413] ({CH2CO}-FWD[NHexGly]Y[Nle]N[Cit][Tic][Ahp(2)]PVSCG-NH2; thioether N-14)
12.3 nM	CCCCCCN1CC(=O)N[C@@H](Cc2ccc(O)cc2)C(=O)N[C@@H](CCCC)C(=O)N[C@@H](CC(N)=O)C(=O)N[C@@H](CCCNC(=N)N)C(=O)N2Cc3ccccc3C[C@H]2C(=O)N[C@@H](CCCCC)C(=O)N2CCC[C@H]2C(=O)N[C@@H](C(C)C)C(=O)N[C@@H](CC(=O)O)C(=O)N[C@H](C(=O)NCC(N)=O)CSCC(=O)N[C@@H](Cc2ccccc2)C(=O)N[C@@H](Cc2c[nH]c3ccccc23)C(=O)N[C@@H](CC(=O)O)C1=O [Example 1414] ({CH2CO}-FWD[NHexGly]Y[Nle]NR[Tic][Ahp(2)]PVDCG-NH2; thioether N-14)
